Assay results published in patent US20250382332A1, “NOVEL ALPHA-FACTOR BASED PEPTIDES WITH ANTIFUNGAL ACTIVITY” (INVAIO SCIENCES, INC., priority 2024, published 2025).
Peptide text beside a SMILES is read from it.

Tested on: Botrytis cinerea (B05.10)
Test: Resazurin antifungal assay of 180 alpha-factor peptide variants towards Botrytis (Example 2)
Format: cell-based
Set-up: key to active against Botrytis at 15 μM / active against Botrytis at 10 μM: Peptides that showed greater than 90% inhibition were considered active against Botrytis
Conditions: for Inhibition at 10 μM / Inhibition at 15 μM / Inhibition at 20 μM / Inhibition at 50 μM / Inhibition at 100 μM: % inhibition of fungal growth, Botrytis conidia, resazurin; for Inhibition at 10 μM: peptide 10 μM; for Inhibition at 20 μM: peptide 20 μM; for Inhibition at 50 μM: peptide 50 μM; for Inhibition at 100 μM: peptide 100 μM
Outline: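 Resazurin viability read-out (570/620 nm fluorescence) after a 24 h, 20° C incubation of B05.10 conidia, 5000 per well, with peptide at final 10-100 μM. Growth inhibition (%) was derived by subtracting conidia-only fluorescence; four replicates per treatment.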

CSCC[C@H](NC(=O)[C@@H]1CCCN1C(=O)[C@H](CCC(N)=O)NC(=O)CNC(=O)[C@@H]1CCCN1C(=O)[C@H](CC(N)=O)NC(=O)[C@H](CC(C)C)NC(=O)[C@H](CCCNC(=N)N)NC(=O)[C@H](CC(C)C)NC(=O)[C@H](Cc1c[nH]c2ccccc12)NC(=O)[C@H](Cc1c[nH]cn1)NC(=O)[C@@H](N)CCCCN)C(=O)N[C@@H](Cc1ccc(O)cc1)C(=O)O [compound 69] (H-KHWLRLNPGQPMY-OH; N-terminus and C-terminus assumed)
Inhibition at 10 μM: <90%
Inhibition at 15 μM (peptide 15 μM): <90%
Inhibition at 20 μM: 95.74%
Inhibition at 50 μM: 100%
Inhibition at 100 μM: 100%

CSCC[C@H](NC(=O)[C@H](CO)NC(=O)[C@H](CCC(N)=O)NC(=O)CNC(=O)[C@@H]1CCCN1C(=O)[C@H](CCCCN)NC(=O)[C@H](CC(C)C)NC(=O)[C@H](CCCNC(=N)N)NC(=O)[C@H](CC(C)C)NC(=O)[C@H](Cc1ccc(O)cc1)NC(=O)[C@H](Cc1c[nH]cn1)NC(=O)[C@@H](N)Cc1c[nH]c2ccccc12)C(=O)N[C@@H](Cc1ccc(O)cc1)C(=O)O [compound 70] (H-WHYLRLKPGQSMY-OH; N-terminus and C-terminus assumed)
Inhibition at 10 μM: <90%
Inhibition at 20 μM: <90%
Inhibition at 50 μM: 100%
Inhibition at 100 μM: 100%

CC[C@H](C)[C@H](NC(=O)[C@H](Cc1c[nH]c2ccccc12)NC(=O)[C@H](Cc1c[nH]cn1)NC(=O)[C@@H](N)Cc1c[nH]c2ccccc12)C(=O)N[C@@H](CCC(N)=O)C(=O)N[C@@H](CC(C)C)C(=O)N[C@@H](CCCCN)C(=O)N[C@@H](CCCCN)C(=O)NCC(=O)N[C@@H](CCC(=O)O)C(=O)N1CCC[C@H]1C(=O)N[C@@H](CCSC)C(=O)N[C@@H](Cc1ccc(O)cc1)C(=O)O [compound 71] (H-WHWIQLKKGEPMY-OH; N-terminus and C-terminus assumed)
Inhibition at 10 μM: <90%
Inhibition at 20 μM: <90%
Inhibition at 50 μM: 100%
Inhibition at 100 μM: 100%

CSCC[C@H](NC(=O)[C@@H]1CCCN1C(=O)[C@H](CCC(N)=O)NC(=O)CNC(=O)[C@@H]1CCCN1C(=O)[C@H](CCCCN)NC(=O)[C@H](Cc1ccccc1)NC(=O)[C@H](CCCCN)NC(=O)[C@H](CC(C)C)NC(=O)[C@H](Cc1ccc(O)cc1)NC(=O)[C@H](Cc1c[nH]cn1)NC(=O)[C@@H](N)CCCCN)C(=O)N[C@@H](Cc1ccc(O)cc1)C(=O)O [compound 72] (H-KHYLKFKPGQPMY-OH; N-terminus and C-terminus assumed)
Inhibition at 10 μM: <90%
Inhibition at 15 μM (peptide 15 μM): 98.60%
Inhibition at 20 μM: 100%
Inhibition at 50 μM: 100%
Inhibition at 100 μM: 100%
active against Botrytis at 15 μM (peptide 15 μM): active

CC[C@H](C)[C@H](NC(=O)[C@H](CCCNC(=N)N)NC(=O)[C@H](CC(C)C)NC(=O)[C@H](Cc1c[nH]c2ccccc12)NC(=O)[C@H](CCC(N)=O)NC(=O)[C@@H](N)Cc1c[nH]c2ccccc12)C(=O)N[C@@H](CCCCN)C(=O)N[C@@H](CO)C(=O)NCC(=O)N[C@@H](CCC(N)=O)C(=O)NCC(=O)N[C@@H](CCSC)C(=O)N[C@@H](Cc1ccc(O)cc1)C(=O)O [compound 73] (H-WQWLRIKSGQGMY-OH; N-terminus and C-terminus assumed)
Inhibition at 10 μM: <90%
Inhibition at 20 μM: <90%
Inhibition at 50 μM: 100%
Inhibition at 100 μM: 100%

CSCC[C@H](NC(=O)[C@@H]1CCCN1C(=O)[C@H](CCC(N)=O)NC(=O)CNC(=O)[C@@H]1CCCN1C(=O)[C@H](Cc1c[nH]cn1)NC(=O)[C@H](CC(C)C)NC(=O)[C@H](CCCCN)NC(=O)[C@@H](NC(=O)[C@H](Cc1ccccc1)NC(=O)[C@H](Cc1c[nH]cn1)NC(=O)[C@@H](N)Cc1c[nH]c2ccccc12)C(C)C)C(=O)N[C@@H](Cc1ccc(O)cc1)C(=O)O [compound 74] (H-WHFVKLHPGQPMY-OH; N-terminus and C-terminus assumed)
Inhibition at 10 μM: <90%
Inhibition at 20 μM: <90%
Inhibition at 50 μM: 100%
Inhibition at 100 μM: 100%

CC[C@H](C)[C@H](NC(=O)[C@H](Cc1c[nH]c2ccccc12)NC(=O)[C@H](Cc1c[nH]cn1)NC(=O)[C@@H](N)CCCCN)C(=O)N[C@@H](CCCNC(=N)N)C(=O)N[C@@H](CC(C)C)C(=O)N[C@@H](Cc1c[nH]c2ccccc12)C(=O)N1CCC[C@H]1C(=O)NCC(=O)N[C@@H](CCC(N)=O)C(=O)N1CCC[C@H]1C(=O)N[C@@H](CCSC)C(=O)N[C@@H](Cc1ccc(O)cc1)C(=O)O [compound 75] (H-KHWIRLWPGQPMY-OH; N-terminus and C-terminus assumed)
Inhibition at 10 μM: <90%
Inhibition at 15 μM (peptide 15 μM): <90%
Inhibition at 20 μM: 92.02%
Inhibition at 50 μM: 100%
Inhibition at 100 μM: 100%

CSCC[C@H](NC(=O)[C@H](CO)NC(=O)[C@H](C)NC(=O)CNC(=O)[C@@H]1CCCN1C(=O)[C@H](CCCCN)NC(=O)[C@H](CC(C)C)NC(=O)[C@H](CCCNC(=N)N)NC(=O)[C@H](CC(C)C)NC(=O)[C@H](Cc1c[nH]c2ccccc12)NC(=O)[C@H](Cc1c[nH]cn1)NC(=O)[C@@H](N)Cc1c[nH]c2ccccc12)C(=O)N[C@@H](Cc1ccc(O)cc1)C(=O)O [compound 76] (H-WHWLRLKPGASMY-OH; N-terminus and C-terminus assumed)
Inhibition at 10 μM: <90%
Inhibition at 15 μM (peptide 15 μM): <90%
Inhibition at 20 μM: 97.59%
Inhibition at 50 μM: 100%
Inhibition at 100 μM: 100%

CC[C@H](C)[C@H](NC(=O)[C@H](Cc1c[nH]c2ccccc12)NC(=O)[C@H](Cc1c[nH]cn1)NC(=O)[C@@H]1CCCN1)C(=O)N[C@@H](CCCCN)C(=O)N[C@@H](CC(C)C)C(=O)N[C@@H](Cc1c[nH]cn1)C(=O)N[C@H](C(=O)NCC(=O)N[C@@H](CCC(N)=O)C(=O)N1CCC[C@H]1C(=O)N[C@@H](CCSC)C(=O)N[C@@H](Cc1ccc(O)cc1)C(=O)O)[C@@H](C)O [compound 77] (H-PHWIKLHTGQPMY-OH; N-terminus and C-terminus assumed)
Inhibition at 10 μM: <90%
Inhibition at 20 μM: <90%
Inhibition at 50 μM: 100%
Inhibition at 100 μM: 99.74%

CSCC[C@H](NC(=O)[C@@H]1CCCN1C(=O)[C@H](CCC(N)=O)NC(=O)CNC(=O)[C@@H]1CCCN1C(=O)[C@H](CCCCN)NC(=O)[C@H](Cc1ccccc1)NC(=O)[C@H](CC(N)=O)NC(=O)[C@H](CC(C)C)NC(=O)[C@H](Cc1ccccc1)NC(=O)[C@H](Cc1c[nH]cn1)NC(=O)[C@@H](N)CCCCN)C(=O)N[C@@H](Cc1ccc(O)cc1)C(=O)O [compound 78] (H-KHFLNFKPGQPMY-OH; N-terminus and C-terminus assumed)
Inhibition at 10 μM: <90%
Inhibition at 20 μM: <90%
Inhibition at 50 μM: 100%
Inhibition at 100 μM: 100%

CC[C@H](C)[C@H](NC(=O)[C@H](CC(=O)O)NC(=O)[C@H](CCCNC(=N)N)NC(=O)[C@@H](N)Cc1c[nH]c2ccccc12)C(=O)N[C@@H](CCCNC(=N)N)C(=O)N[C@@H](CC(C)C)C(=O)N[C@@H](CCCCN)C(=O)N[C@@H](CCCCN)C(=O)NCC(=O)N[C@@H](CCC(N)=O)C(=O)N1CCC[C@H]1C(=O)N[C@@H](CCSC)C(=O)N[C@@H](Cc1ccc(O)cc1)C(=O)O [compound 79] (H-WRDIRLKKGQPMY-OH; N-terminus and C-terminus assumed)
Inhibition at 10 μM: <90%
Inhibition at 20 μM: <90%
Inhibition at 50 μM: 100%
Inhibition at 100 μM: 100%

CSCC[C@H](NC(=O)[C@@H]1CCCN1C(=O)[C@H](CCC(N)=O)NC(=O)CNC(=O)[C@@H]1CCCN1C(=O)[C@H](CCCCN)NC(=O)[C@H](Cc1ccccc1)NC(=O)[C@H](CCCNC(=N)N)NC(=O)[C@H](CC(C)C)NC(=O)[C@@H](NC(=O)[C@H](Cc1c[nH]cn1)NC(=O)[C@@H](N)CCCCN)[C@@H](C)O)C(=O)N[C@@H](Cc1ccc(O)cc1)C(=O)O [compound 80] (H-KHTLRFKPGQPMY-OH; N-terminus and C-terminus assumed)
Inhibition at 10 μM: <90%
Inhibition at 15 μM (peptide 15 μM): <90%
Inhibition at 20 μM: 99.56%
Inhibition at 50 μM: 100%
Inhibition at 100 μM: 100%

CC[C@H](C)[C@H](NC(=O)[C@H](Cc1c[nH]c2ccccc12)NC(=O)[C@H](Cc1c[nH]cn1)NC(=O)[C@@H](N)CCCCN)C(=O)N[C@@H](CCCCN)C(=O)N[C@@H](CC(C)C)C(=O)N[C@@H](CCCCN)C(=O)N[C@@H](CC(N)=O)C(=O)NCC(=O)N[C@@H](CCC(N)=O)C(=O)N1CCC[C@H]1C(=O)N[C@@H](CCSC)C(=O)N[C@@H](Cc1ccc(O)cc1)C(=O)O [compound 81] (H-KHWIKLKNGQPMY-OH; N-terminus and C-terminus assumed)
Inhibition at 10 μM: <90%
Inhibition at 15 μM (peptide 15 μM): <90%
Inhibition at 20 μM: 99.51%
Inhibition at 50 μM: 100%
Inhibition at 100 μM: 100%

CSCC[C@H](NC(=O)[C@@H]1CCCN1C(=O)[C@H](CCC(N)=O)NC(=O)CNC(=O)[C@@H](NC(=O)[C@H](CCCCN)NC(=O)[C@H](CC(C)C)NC(=O)[C@H](CO)NC(=O)CNC(=O)[C@H](Cc1c[nH]c2ccccc12)NC(=O)[C@H](Cc1c[nH]cn1)NC(=O)[C@@H](N)Cc1c[nH]c2ccccc12)C(C)C)C(=O)N[C@@H](Cc1ccc(O)cc1)C(=O)O [compound 82] (H-WHWGSLKVGQPMY-OH; N-terminus and C-terminus assumed)
Inhibition at 10 μM: <90%
Inhibition at 20 μM: <90%
Inhibition at 50 μM: 100%
Inhibition at 100 μM: 100%
